Results: PubChem BioAssay AID1996
Converted amounts (≈) assume the structure as drawn.

Details: buffer; pH 7.4; 200.0 µM

Structure (SMILES)	solubility kinetic [µg/mL]
COc1ccc(N2CC(C(=O)NC3=NCCS3)CC2=O)cc1 (stereo not drawn)	> 47.9
CCN1CCN(C(=O)CN2C(=O)COc3ccc(C)cc32)CC1	> 47.6
Cc1ccc(C)c(OCCNc2ncccc2[N+](=O)[O-])c1	0.3 (≈ 1.04 µM)
CC1CCN(CC(=O)N2CCN(c3ccccc3)CC2)CC1	40.8 (≈ 135 µM)
COCCNC(=O)C(=O)NNC(=O)CCc1ccccc1	> 44
O=C(CN1C(=O)NC2(CCOc3ccccc32)C1=O)NCCc1ccc(F)cc1 (stereo not drawn)	> 59.6
COCCNC(=O)CN1CCCCCC1.Cl	34.8
Cc1cc(C)cc(C(=O)Oc2cc(C)[nH]c(=O)c2[N+](=O)[O-])c1	> 45.3
Cc1ncc(CN2CCC(CO)(CCOc3ccccc3)CC2)s1	48.2 (≈ 139 µM)
Cc1ccnc(NCc2ccccc2O)c1	23 (≈ 107 µM)
CCN1CCN(c2nc(NCCO)c3ccccc3n2)CC1.Cl	48
CCC(C(=O)Nc1ccc([N+](=O)[O-])cn1)c1ccccc1 (stereo not drawn)	39.3 (≈ 138 µM)
O=C(COC(=O)c1ccc(Br)o1)NCc1ccc(Cl)cc1	7.2 (≈ 19.3 µM)
Cc1cc(NC(=O)CSCc2ccccc2C)no1	18.3 (≈ 66.2 µM)
CN(C)c1ccc(CNc2ncnc3sccc23)cc1	29.7 (≈ 104 µM)
Cc1ccc(NC(=O)COC(=O)Cn2cnc3c2c(=O)n(C)c(=O)n3C)cc1	> 57.8
Cc1cccc(/N=C2/NC(=O)C(Cc3ccccc3)S2)n1 (stereo not drawn)	0.3 (≈ 1.01 µM)
CC(C)(C)c1cc(NC(=O)Nc2ccccc2)no1	4.1 (≈ 15.8 µM)
COc1ccccc1C(c1c(N)n(C)c(=O)n(C)c1=O)C(C)[N+](=O)[O-] (stereo not drawn)	> 52.3
Cc1cccc(NC(=O)Nc2ccccc2)n1	2.5 (≈ 11 µM)
Cc1cc([N+](=O)[O-])ccc1NC(=O)C(C)NC1CCCCC1 (stereo not drawn)	> 45.8
Cc1ccc(Nc2ncc3c(n2)CC(C)CC3=O)c(C)c1 (stereo not drawn)	> 42.2
O=C(Nc1ccccn1)c1ccc2c(c1)OCO2	> 36.3
O=S(=O)(Nc1ccccc1)c1cccc2nonc12	> 41.3

Structure (SMILES)	solubility kinetic [µg/mL]
N#Cc1ccc(Cn2c(-c3ccc(F)cc3)noc2=O)cc1	37.6 (≈ 127 µM)
O=C(c1ccccc1NS(=O)(=O)c1ccc(F)cc1F)N1CCCCC1	> 57.1
CCOc1ncc(S(=O)(=O)N2CCN(CC)CC2)cc1C(=O)O	> 51.5
CCc1noc(C)c1C(=O)OCC(=O)N1CCc2ccccc21	4.6 (≈ 14.6 µM)
Cc1ccc(NC(=O)O/N=C/c2ccc(N(C)C)cc2)cc1	1.1 (≈ 3.7 µM)
O=S(=O)(NC1CCCCCCC1)c1ccc(F)cc1	> 42.8
O=C(Cc1nc2ccccc2[nH]1)c1ccc([N+](=O)[O-])cc1	37.8 (≈ 134 µM)
C/C(=N\NC(=O)c1cccnc1)c1cccc([N+](=O)[O-])c1	> 42.6
CCN(CC)c1ccc(NC(=S)NC(=O)c2cccs2)cc1	< 0.2
CCCc1cc(=O)[nH]c(Nc2ccc(Cl)cc2)n1	4.4 (≈ 16.7 µM)
CC(=O)Nc1ccc(N/C=C/C(=O)c2ccccc2)cc1	4.1 (≈ 14.6 µM)
CN(Cc1nc2ccccc2n1C)c1ccccc1	> 37.7
c1ccc(-c2nc(-c3ccc(-c4ccon4)s3)no2)cc1	0.6 (≈ 2.03 µM)
CSCC(=O)NC1CCCN(C2Cc3ccccc3C2)C1 (stereo not drawn)	44.1 (≈ 145 µM)
CCN1CCN(CCC(=O)Nc2cc(C)ccc2C)CC1	> 43.4
Cc1cccc(NS(=O)(=O)c2cc(Cl)ccc2Cl)n1	> 47.6
CC(Oc1ccccc1)C(=O)N1CCN=C1SCc1cccc(F)c1 (stereo not drawn)	11.1 (≈ 31 µM)
O=C(CCNC(=O)c1ccccc1Cl)NCc1cccnc1	> 47.7
COc1cccc(Oc2ccc(S(=O)(=O)N3CCOCC3)cc2[N+](=O)[O-])c1	11 (≈ 27.9 µM)
Cc1onc(-c2c(F)cccc2Cl)c1C(=O)OCC(=O)N1C(C)CCCC1C (stereo not drawn)	41.7 (≈ 102 µM)
O=C(/C=C/c1ccco1)Nc1ccc2c(c1)OCO2	36.8 (≈ 143 µM)
Cc1ccc(NC(=O)CN(C)C(=O)/C=C/c2cccc(F)c2)cc1	2.2 (≈ 6.74 µM)
O=C(Nc1ccccc1)/C(=C\c1ccccc1)NC(=O)c1ccco1	0.7 (≈ 2.11 µM)
COc1ccc(Cl)cc1C(=O)Nc1cccnc1	22.1 (≈ 84.1 µM)
